In this assay the target is Tubulin (Homo sapiens) (UniProt P68371+Q9H4B7+P0DPH7+P68366+Q13509+Q71U36+P04350+Q3ZCM7+P07437+P68363+Q9BQE3+Q6PEY2+Q13885+Q9BVA1+Q9BUF5). In words: Inhibition of tubulin (unknown origin) assessed as inhibition of tubulin polymerization at 10 uM measured for 50 mins by fluorescence based analysis. Format: protein-complex assay.

Consider three compounds from ChEMBL document CHEMBL4680293, “Tubulin inhibitory activity of a novel colchicine-binding compounds based on a dinaphthospiropyranran scaffold” (Bioorg Med Chem, 2021).

The source made the active and inactive calls. The calls are words filed in the database; no cut-off is given here.

As to `C1=C2COCC3=Cc4c(ccc5ccccc45)OC23Oc2ccc3ccccc3c21`, the inhibition entry was “Active”.
The value for `CC[C@]1(O)C[C@@H]2CN(CCc3c([nH]c4ccccc34)[C@@](C(=O)OC)(c3cc4c(cc3OC)N(C)[C@H]3[C@@](O)(C(=O)OC)[C@H](OC(C)=O)[C@]5(CC)C=CCN6CC[C@]43[C@@H]65)C2)C1` was “Active”; that for `C1=C2CCC3=Cc4c(ccc5ccccc45)OC23Oc2ccc3ccccc3c21` was “Active”.
